{"source": "patent US20230263792A1", "about": "“USE OF 2,3,5-SUBSTITUTED THIOPHENE COMPOUND FOR PREVENTING, ALLEVIATION, OR TREATING MASTOCYTOSIS” (PHAROS IBIO CO., LTD, priority 2020, published 2023)", "key": {"[1]": {"tested_on": "Ba/F3 cell line with a c-kit D816V mutation", "assay": "Growth inhibition of c-kit D816V Ba/F3 cell line (Celltiter glo)", "type": "cell-based", "conditions": "GI50 comparison, Table 1", "procedure": "Specifically, 100 μl of a Ba/F3 cell line with a c-kit D816V mutation (FIG. 1) was added to each well of a 96-well plate at a concentration of 10,000 cells/100 μl. After 4 hours, 100 μl of the Ba/F3 cell line was treated with 0.5 μl of each of control compounds and PHI-101 (10-point 1:3 serial dilutions) to a final concentration of up to 50 μM, and cultured at 37° C. under 5% CO2 for 72 hours. As the control compounds, imatinib and sunitinib which are c-kit inhibitors were used. After culture, the cells were counted using a Celltiter glo assay kit (Promega), and the 50% growth inhibition values (GI50, μM) of the control compounds and PHI-101 were measured."}, "[2]": {"tested_on": "c-kit phosphorylation and downstream signaling (p-STAT3, p-ERK1/2) in the c-kit D816V mutant Ba/F3 cell line", "assay": "Western blot of c-kit phosphorylation and downstream signaling in c-kit D816V Ba/F3", "type": "cell-based", "conditions": "0.1, 1 and 10 μM, 2 hours, FIG. 2", "procedure": "The inhibitory activities of control compounds and PHI-101 against c-kit phosphorylation and downstream signaling (p-STAT3, p-ERK1/2) in the c-kit D816V mutant Ba/F3 cell line were measured, and as the control compounds, sunitinib and dasatinib were used.\nSpecifically, the c-kit D816V mutant Ba/F3 cell line was dispensed at a concentration of 1×10^6 cells/ml, treated with each of the control compounds and PHI-101 at concentrations of 0.1, 1 and 10 μM, and then cultured for 2 hours. Next, lysates of the cells were obtained using lysis buffer (50 mM Tris-HCl pH 7.5, 1% NP40, 1 mM EDTA, 150 mM NaCl, 5 mM, Na3VO4 and 2.5 mM NaF, and a protease inhibitor cocktail). Equal amounts of the cell lysates were electrophoresed using 8% SDS-PAGE gel at 100 V for 1 hour and 30 minutes, and the separated protein was electrically transferred to nitrocellulose membranes. The membranes were blocked with 5% skim milk at room temperature for 30 minutes, and allowed to react with primary antibodies (diluted 1:5,000), including p-c-kit tyrosine 719 (Y719), p-STAT3 tyrosine 705 (Y705) and p-ERK1/2 threonine 202/tyrosine 204 (T202/Y204) at 4° C. for 16 to 20 hours. […] Next, the membranes were washed three times with TBST for 5 minutes each time and treated with a chemiluminescent substrate reagent, and the expression level of the protein was measured by detecting luminescence with an X-ray film in the dark."}, "[3]": {"tested_on": "c-kit D816V mutant Ba/F3 cell line", "assay": "Annexin V-PI FACS apoptosis analysis, c-kit D816V Ba/F3", "type": "cell-based", "conditions": "0.1, 1 and 10 μM, 24 hours, FIG. 3", "procedure": "Specifically, the c-kit D816V mutant Ba/F3 cell line was adjusted to a concentration of 1×10^6 cells/ml and treated with each of PHI-101 at concentrations of 0.1, 1 and 10 μM and the control compound sunitinib at concentrations of 1 and 10 μM for 24 hours. Thereafter, the medium was removed and the cells were washed once with 1 ml PBS. The PBS was removed by centrifugation at 1,000 rpm for 5 minutes. The cells were dissolved in 100 μl of PBS containing Ca^2+ and Mg^2+ and allowed to react with 5 μl of Annexin V for 20 minutes. After completion of the reaction, 400 μl of PBS containing Ca^2+ and Mg^2+ was added, and 5 μl of propidium iodide (PI) was added, and then the degree of apoptotic cell death was analyzed by FACS (fluorescence activated cell sorter) assay using a flow cytometer (FACS-C6, BD)."}, "[4]": {"tested_on": "inflammatory response caused by mastocytosis (HMC-1.2 mouse model)", "assay": "Spleen/body weight ratio in mastocytosis mouse model (inflammatory response)", "type": "in vivo, NOD SCID female mice", "procedure": "As mice, 6-8-week-old NOD SCID female mice (18 to 22 g) (GemPharmatech Co., Ltd.) were prepared. Mice were acclimatized for 7 days before use in the experiment, and mice with abnormal health were excluded from the experiment. Mice were bred in a cage (300×180×150 mm) at a 22±3° C. and a relative humidity of 40% to 70% with a 12-hr light/12-hr dark cycle. Mice were allowed access to sterilized dry granular food (Beijing Keaoxieli Feed Co., Ltd., Beijing, China) and water ad libitum for the entire experimental period except for the period specified in the protocol.\n50 ml of HMC-1.2 cells suspension-cultured in a 75T flask were placed in a conical tube and centrifuged at 1,200 rpm for 2 minutes, centrifuged with DPBS (Dulbecco's Phosphate-Buffered Saline, Welgene) at 1,200 rpm for 2 minutes, washed, and then suspended in RPMI1640 (Welgene) without antibiotics and fetal bovine serum (FBS). Then, the cells were stained with trypan blue, counted with a hemocytometer, and then HMC-1.2 cells (1×10^6) in a mixture of 0.1 ml L-15 and Matrigel (BD, cat. No. 356234) (1:1) were subcutaneously injected into the right flanks of mice anesthetized by intraperitoneal administration of Avertin (250 mg/kg), thus inducing tumors.\n(§1) Thereafter, when the average tumor volume reached 150 to 200 mm^3, 4 mice were assigned to each group so that the average tumor volume at each group and treatment time was the same between the groups. Then, each of imatinib at a dose of 90 mg/kg, sunitinib at doses of 20 and 40 mg/kg, and PHI-101 at doses of 7, 20, 40 and 80 mg/kg was administered orally to the mice once daily for 3 weeks. For oral administration, each compound was dissolved in 5% 1-methyl-2-pyrrolidone and then completely mixed in 15% Kolliphor, 30% PEG E400 HS15 and 50% 0.05M citric acid.\nSpecifically, 3 weeks after administering each drug to the mastocytosis mouse model of Example 3-1, the mice were sacrificed, the body weight and spleen weight were measured using a digital scale, and then the spleen/body weight ratio was calculated."}, "[5]": {"assay": "Body weight monitoring in mastocytosis mouse model", "type": "in vivo, NOD SCID female mice", "conditions": "80 mg/kg oral once daily for 3 weeks", "procedure": "as §1\nSpecifically, while the presence or absence of abnormalities in the mastocytosis mouse model of Example 3-1 was monitored daily by checking the skin condition, bleeding and stool status, whether the body weight changed was checked by measuring the mouse body weight at intervals of 3 days after the start of oral administration of each drug. In addition, the width and length of the tumor were measured using a caliper at 3-day intervals, and the tumor volume was calculated using the following equation."}, "[6]": {"conditions": "7 mg/kg oral once daily for 3 weeks"}, "[7]": {"conditions": "20 mg/kg oral once daily for 3 weeks"}, "[8]": {"conditions": "40 mg/kg oral once daily for 3 weeks"}, "[9]": {"conditions": "80 mg/kg oral once daily for 3 weeks"}}, "data": [{"compound": "NC(=O)Nc1cc(C#Cc2cccc(F)c2)sc1C(=O)N[C@H]1CCCNC1", "note": "[PHI-101]", "values": [{"measurement": "selectivity for c-kit D816V Ba/F3 over parental Ba/F3", "setting": "[1]", "value": "higher selectivity for the c-kit D816V Ba/F3 mutant cell line than for the parental Ba/F3 cell line"}, {"measurement": "inhibitory activity against p-c-kit (Y719) phosphorylation", "setting": "[2]", "value": "higher inhibitory activity against p-c-kit (Y719) phosphorylation than the control compounds"}, {"measurement": "apoptosis induction (Annexin V-PI FACS)", "setting": "[3]", "value": "strongly induced apoptosis even at a concentration of 0.1 μM"}, {"measurement": "Spleen/body weight ratio % of control", "setting": "[4]; [6]", "value": 105.0, "unit": "%"}, {"measurement": "Spleen/body weight ratio Inhibition (%)", "setting": "[4]; [6]", "value": "−5", "unit": "%"}, {"measurement": "Spleen/body weight ratio % of control", "setting": "[4]; [7]", "value": 95.0, "unit": "%"}, {"measurement": "Spleen/body weight ratio Inhibition (%)", "setting": "[4]; [7]", "value": 5, "unit": "%"}, {"measurement": "Spleen/body weight ratio % of control", "setting": "[4]; [8]", "value": 55.7, "unit": "%"}, {"measurement": "Spleen/body weight ratio Inhibition (%)", "setting": "[4]; [8]", "value": 44.3, "unit": "%"}, {"measurement": "Spleen/body weight ratio % of control", "setting": "[4]; [9]", "value": 46.3, "unit": "%"}, {"measurement": "Spleen/body weight ratio Inhibition (%)", "setting": "[4]; [9]", "value": 53.7, "unit": "%"}, {"measurement": "spleen/body weight ratio compared to control group", "setting": "[4]; 7, 20, 40 and 80 mg/kg, FIGS. 13 and 14", "value": "decreased the spleen/body weight ratio in a concentration-dependent manner"}, {"measurement": "weight loss", "setting": "[5]", "value": "no weight loss"}]}]}
